From ChEMBL document CHEMBL1144892, “Synthesis and biological activity of various derivatives of a novel class of potent, selective, and orally active prostaglandin D2 receptor antagonists. 2. 6,6-Dimethylbicyclo[3.1.1]heptane derivatives” (J Med Chem, 2003)

Key:
Cavia porcellus [1] = assay: In vivo percent inhibition against antigen induced increase in intranasal pressure in actively sensitized guinea pig administered intravenously with 1 mg/Kg of compound; assay type: functional
[2] = molecular target: T1, Prostaglandin D2 receptor (Homo sapiens, UniProt Q13258); assay: Prostaglandin D2 receptor antagonist activity, evaluated by inhibition of [3H]PGD-2 binding to human platelet membranes
T1 sequence (Q13258 whole entry): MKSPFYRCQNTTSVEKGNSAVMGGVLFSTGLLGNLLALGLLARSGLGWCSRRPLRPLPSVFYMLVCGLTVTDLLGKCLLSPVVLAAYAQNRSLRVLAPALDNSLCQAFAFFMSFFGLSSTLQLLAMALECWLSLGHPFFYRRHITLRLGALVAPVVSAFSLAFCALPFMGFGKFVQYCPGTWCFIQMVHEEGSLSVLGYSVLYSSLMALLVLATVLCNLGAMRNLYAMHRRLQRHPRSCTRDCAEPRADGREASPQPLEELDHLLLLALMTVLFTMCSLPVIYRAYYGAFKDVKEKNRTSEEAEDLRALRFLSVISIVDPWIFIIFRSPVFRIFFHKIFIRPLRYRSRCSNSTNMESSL

[3] = molecular target: T1, Prostaglandin D2 receptor; assay: Concentration required to inhibit the PGD-2 evoked cAMP formation in human platelets; assay type: functional
Cavia porcellus [4] = assay: Compound at 10 mg/kg was tested for the inhibition of increase in eosinophil number in bronchoalveolar lavage fluid at 72 hr after inhalation of aerosol antigen in actively sensitized guinea pig; assay type: functional; conditions: Lung, inhaled or nasal
Cavia porcellus [5] = assay: Compound at 10 mg/kg was tested for the inhibition of increase in eosinophil number in nasal lavage fluid at 5 hr after intranasal antigen challenge in actively sensitized guinea pig; assay type: functional; conditions: inhaled or nasal
Cavia porcellus [6] = assay: In vivo inhibition of antigen-induced increase in intranasal pressure in actively sensitized guinea pig administered perorally with 10 mg/Kg compound, 10 minutes before the antigen challenge; assay type: functional; conditions: oral
Cavia porcellus [7] = assay: In vivo inhibition of antigen-induced increase in intranasal pressure in actively sensitized guinea pig administered perorally with 3 mg/Kg compound, 10 minutes before the antigen challenge; assay type: functional; conditions: inhaled or nasal
Cavia porcellus [8] = assay: Percent inhibition against increase in specific airway resistance by antigen inhalation in conscious guinea pig administered perorally with 10 mg/Kg of compound, 1 hr before the test; assay type: functional
Cavia porcellus [9] = assay: Effective dose required to inhibit conjuctival microvascular permeability caused by topical application of 0.1% PGD-2 in guinea pig administered perorally with compound, 1 hour before the test; assay type: functional
Cavia porcellus [10] = assay: Effective dose required to inhibit conjuctival microvascular permeability caused by topical application of 0.1% antigen in guinea pig administered perorally with compound, 1 hour before the test; assay type: functional
Cavia porcellus [11] = assay: In vivo inhibition of antigen-induced increase in intranasal pressure in actively sensitized guinea pig administered intravenously with 1 mg/Kg compound, 10 minutes before the antigen challenge; assay type: functional
Cavia porcellus [12] = assay: Percent inhibition against antigen induced increase in intranasal pressure in actively sensitized guinea pig administered intravenously with 1 mg/Kg of compound; assay type: functional

| IC50 [2] | IC50 [3] | Compound | other results |
| --- | --- | --- | --- |
| 3300 nM | 15 nM | CC1(C)[C@H]2C[C@H](C/C=C/CCCC(=O)O)[C@@H](NC(=O)c3cccs3)[C@@H]1C2 | Inhibition (Cavia porcellus [1]): 38% |
| > 10000 nM | > 1000 nM | CN(C(=O)c1ccsc1)[C@@H]1[C@@H](C/C=C/CCCC(=O)O)C[C@H]2C[C@@H]1C2(C)C | – |
| – | 37 nM | CC1(C)[C@H]2C[C@H](C/C=C/CCCC(=O)O)[C@@H](NC(=O)c3ccc[nH]3)[C@@H]1C2 | – |
| 6000 nM | 410 nM | CC1(C)[C@H]2C[C@H](C/C=C/CCCC(=O)NS(C)(=O)=O)[C@@H](NC(=O)c3ccsc3)[C@@H]1C2 | – |
| 1.9 nM | 0.9 nM | CC1(C)[C@H]2C[C@H](C/C=C/CCCC(=O)O)[C@@H](NC(=O)c3csc4ccc(O)cc34)[C@@H]1C2 | inhibition in vivo at 10 mg/kg (Cavia porcellus [4]): 43%; inhibition in vivo at 10 mg/kg (Cavia porcellus [5]): 80%; inhibition in vivo at 10 mg/kg (Cavia porcellus [6]): 96%; inhibition in vivo at 3 mg/kg (Cavia porcellus [7]): 64%; Inhibition (Cavia porcellus [8]): 70%; ED50 (Cavia porcellus [9]): 0.12 mg/kg; ED50 (Cavia porcellus [10]): 2 mg/kg |
| > 10000 nM | > 1000 nM | CN(C(=O)c1ccccc1)[C@@H]1[C@@H](C/C=C/CCCC(=O)O)C[C@H]2C[C@@H]1C2(C)C | – |
| > 10000 nM | > 1000 nM | CC1(C)[C@H]2C[C@H](C/C=C/CCCC(=O)O)[C@@H](NC(=O)C3CCCCC3)[C@@H]1C2 | – |
| > 10000 nM | > 1000 nM | CC1(C)[C@H]2C[C@H](CC(=O)CCCCC(=O)O)[C@@H](NC(=O)c3ccsc3)[C@@H]1C2 | – |
| 0.42 nM | 3.2 nM | CC1(C)[C@H]2C[C@H](C/C=C/CCCC(=O)O)[C@@H](NC(=O)c3csc4ccc(F)cc34)[C@@H]1C2 | inhibition in vivo at 3 mg/kg (Cavia porcellus [7]): 86%; Inhibition (Cavia porcellus [8]): 69%; ED50 (Cavia porcellus [9]): 3.5 mg/kg; ED50 (Cavia porcellus [10]): 8.9 mg/kg |
| 520 nM | 110 nM | CC1(C)[C@H]2C[C@H](C/C=C/CCCC(=O)O)[C@@H](NC(=O)c3c[nH]c4ccccc34)[C@@H]1C2 | – |
| 1300 nM | > 1000 nM | CC1(C)[C@H]2C[C@H](NS(=O)(=O)c3ccc(-c4ccccc4)cc3)[C@@H](C/C=C\CCCC(=O)O)[C@@H]1C2 | – |
| – | – | CC1(C)[C@H]2C[C@H](C/C=C\CCCC(=O)O)[C@@H](NC(=O)c3ccc(/N=N/c4ccccc4)cc3)[C@@H]1C2 | inhibition in vivo at 1 mg/kg (Cavia porcellus [11]): 60% |
| 19 nM | 390 nM | CC1(C)[C@H]2C[C@H](C/C=C/CCCC(=O)O)[C@@H](NC(=O)c3cc4ccccc4s3)[C@@H]1C2 | – |
| 3400 nM | 240 nM | CC1(C)[C@H]2C[C@H](C/C=C/CCCC(=O)O)[C@@H](NC(=O)c3ccc(O)cc3)[C@@H]1C2 | – |
| 690 nM | 76 nM | CC1(C)[C@H]2C[C@H](C/C=C/CCCC(=O)O)[C@@H](NC(=O)c3cc4ccccc4o3)[C@@H]1C2 | – |
| > 10000 nM | 500 nM | CC1(C)[C@H]2C[C@H](C/C=C/CCCC(=O)O)[C@@H](NC(=O)c3cncs3)[C@@H]1C2 | – |
| 5100 nM | > 1000 nM | CC1(C)[C@H]2C[C@H](NC(=O)c3ccc(-c4ccccc4)cc3)[C@@H](C/C=C\CCCC(=O)O)[C@@H]1C2 | – |
| 1600 nM | 38 nM | CC1(C)[C@H]2C[C@H](C/C=C/CCCC(=O)O)[C@@H](NC(=O)c3ccsc3)[C@@H]1C2 | Inhibition (Cavia porcellus [12]): 77%; Inhibition (Cavia porcellus [8]): 15%; ED50 (Cavia porcellus [9]): 3.5 mg/kg; ED50 (Cavia porcellus [10]): 9.5 mg/kg |
| 560 nM | 17 nM | CC1(C)[C@H]2C[C@H](C/C=C/CCCC(=O)O)[C@@H](NC(=O)Cc3ccoc3)[C@@H]1C2 | – |
| 590 nM | 74 nM | Cc1scc(C(=O)N[C@@H]2[C@@H](C/C=C/CCCC(=O)O)C[C@H]3C[C@@H]2C3(C)C)c1-c1ccccc1 | – |
| > 10000 nM | > 1000 nM | CC1(C)[C@H]2C[C@H](C/C=C/CCCC(=O)O)[C@@H](NC(=O)Cc3ccccc3)[C@@H]1C2 | – |
| – | – | CC1(C)[C@H]2C[C@H](C/C=C\CCCC(=O)O)[C@@H](NC(=O)c3ccccc3)[C@@H]1C2 | inhibition in vivo at 1 mg/kg (Cavia porcellus [11]): 52% |

| IC50 [2] | IC50 [3] | Compound | other results |
| --- | --- | --- | --- |
| 32 nM | 22 nM | CC1(C)[C@H]2C[C@H](C/C=C/CCCC(=O)O)[C@@H](NC(=O)c3csc4ccccc34)[C@@H]1C2 | inhibition in vivo at 10 mg/kg (Cavia porcellus [6]): 82% |
| – | 73 nM | CC1(C)[C@H]2C[C@H](C/C=C/CCCC(=O)O)[C@@H](NC(=O)c3ccc4ccccc4c3)[C@@H]1C2 | – |
| 2.2 nM | 18 nM | CC1(C)[C@H]2C[C@H](C/C=C/CCCC(=O)O)[C@@H](NC(=O)c3csc4cc(O)ccc34)[C@@H]1C2 | inhibition in vivo at 10 mg/kg (Cavia porcellus [6]): 88% |
| 4600 nM | 320 nM | COc1ccccc1C(=O)N[C@@H]1[C@@H](C/C=C/CCCC(=O)O)C[C@H]2C[C@@H]1C2(C)C | – |
| 330 nM | – | CC1(C)[C@H]2C[C@H](C/C=C/CCCC(=O)O)[C@@H](NC(=O)c3cccnc3)[C@@H]1C2 | – |
| 3600 nM | > 1000 nM | CC1(C)[C@H]2C[C@@H](NC(=O)c3ccc(-c4ccccc4)cc3)[C@H](C/C=C\CCCC(=O)O)[C@@H]1C2 | – |
| 47 nM | 470 nM | CC1(C)[C@H]2C[C@H](C/C=C\CCCC(=O)O)[C@@H](NC(=O)c3ccc(-c4ccccc4)cc3)[C@@H]1C2 | inhibition in vivo at 1 mg/kg (Cavia porcellus [11]): 30% |
| – | 93 nM | CC1(C)[C@H]2C[C@H](C/C=C/CCCc3nnn[nH]3)[C@@H](NC(=O)c3ccsc3)[C@@H]1C2 | – |
| 520 nM | 56 nM | COc1cc(C(=O)N[C@@H]2[C@@H](C/C=C/CCCC(=O)O)C[C@H]3C[C@@H]2C3(C)C)cs1 | – |
| 420 nM | 110 nM | Cn1ccc(C(=O)N[C@@H]2[C@@H](C/C=C/CCCC(=O)O)C[C@H]3C[C@@H]2C3(C)C)c1 | – |
| 13 nM | 25 nM | Cc1cc(C(=O)N[C@@H]2[C@@H](C/C=C/CCCC(=O)O)C[C@H]3C[C@@H]2C3(C)C)cs1 | – |
| 7500 nM | 30 nM | CC1(C)[C@H]2C[C@H](C/C=C/CCCC(=O)O)[C@@H](NC(=O)c3csc4ccc(NS(C)(=O)=O)cc34)[C@@H]1C2 | – |
| 2100 nM | 170 nM | CC1(C)[C@H]2C[C@H](C/C=C/CCCC(=O)O)[C@@H](NC(=O)c3ccc4c(c3)OCO4)[C@@H]1C2 | – |
| 42 nM | 100 nM | CC1(C)[C@H]2C[C@H](C/C=C/CCCC(=O)O)[C@@H](NC(=O)c3csc(-c4ccccc4)c3)[C@@H]1C2 | – |
| 4400 nM | 110 nM | CC1(C)[C@H]2C[C@H](C/C=C/CCCC(=O)O)[C@@H](NC(=O)c3ccc([N+](=O)[O-])cc3)[C@@H]1C2 | – |
| 1200 nM | 530 nM | CC1(C)[C@H]2C[C@H](C/C=C\CCCC(=O)O)[C@@H](NS(=O)(=O)c3ccc(-c4ccccc4)cc3)[C@@H]1C2 | – |
| 180 nM | 20 nM | Cc1sccc1C(=O)N[C@@H]1[C@@H](C/C=C/CCCC(=O)O)C[C@H]2C[C@@H]1C2(C)C | – |
| 4500 nM | 230 nM | COc1cscc1C(=O)N[C@@H]1[C@@H](C/C=C/CCCC(=O)O)C[C@H]2C[C@@H]1C2(C)C | – |
| 1300 nM | > 1000 nM | CC1(C)[C@H]2C[C@@H](NS(=O)(=O)c3ccc(-c4ccccc4)cc3)[C@H](C/C=C\CCCC(=O)O)[C@@H]1C2 | – |
| 26 nM | 5.6 nM | CC1(C)[C@H]2C[C@H](C/C=C/CCCC(=O)O)[C@@H](NC(=O)c3cccc4ccsc34)[C@@H]1C2 | inhibition in vivo at 10 mg/kg (Cavia porcellus [6]): 70% |
| 3900 nM | 190 nM | COc1ccc(C(=O)N[C@@H]2[C@@H](C/C=C/CCCC(=O)O)C[C@H]3C[C@@H]2C3(C)C)cc1 | – |
| 150 nM | 35 nM | CC1(C)[C@H]2C[C@H](C/C=C/CCCC(=O)O)[C@@H](NC(=O)c3csc4c3CCCC4)[C@@H]1C2 | – |
